Among the data in the OligoGym collection are normalised inhibition (eCFP-eYFP dual reporter) values, retold here.

Oligonucleotides are given in HELM: sugar(base)linkage, 5' to 3'; d 2'-deoxyribose, r ribose, m 2'-O-methylribose, p phosphate. ss, as = sense and antisense strand

This data set addresses TMEM63B. The data set is described as follows: reporter assay of Huesken 2005. Particulars: siRNA.
Also: test concentration or dose not given here.

For the substance “RNA1{r(U)p.r(G)p.r(A)p.r(A)p.r(U)p.r(G)p.r(A)p.r(G)p.r(A)p.r(A)p.r(G)p.r(C)p.r(C)p.r(U)p.r(C)p.r(U)p.r(U)p.r(G)p.r(G)p.d(T)p.d(T)}|RNA2{r(C)p.r(C)p.r(A)p.r(A)p.r(G)p.r(A)p.r(G)p.r(G)p.r(C)p.r(U)p.r(U)p.r(C)p.r(U)p.r(C)p.r(A)p.r(U)p.r(U)p.r(C)p.r(A)p.d(C)p.d(C)}$$$RNA1{StrandType:ss}|RNA2{StrandType:as}$”, the normalised inhibition (eCFP-eYFP dual reporter) came out at 39.5%.
In the case of “RNA1{r(G)p.r(G)p.r(G)p.r(A)p.r(G)p.r(A)p.r(A)p.r(C)p.r(A)p.r(G)p.r(G)p.r(A)p.r(C)p.r(A)p.r(A)p.r(C)p.r(C)p.r(A)p.r(U)p.d(T)p.d(T)}|RNA2{r(A)p.r(U)p.r(G)p.r(G)p.r(U)p.r(U)p.r(G)p.r(U)p.r(C)p.r(C)p.r(U)p.r(G)p.r(U)p.r(U)p.r(C)p.r(U)p.r(C)p.r(C)p.r(C)p.d(C)p.d(A)}$$$RNA1{StrandType:ss}|RNA2{StrandType:as}$” it was 65.9%; in that of “RNA1{r(A)p.r(C)p.r(G)p.r(C)p.r(U)p.r(C)p.r(U)p.r(G)p.r(G)p.r(G)p.r(G)p.r(A)p.r(G)p.r(A)p.r(A)p.r(C)p.r(A)p.r(G)p.r(G)p.d(T)p.d(T)}|RNA2{r(C)p.r(C)p.r(U)p.r(G)p.r(U)p.r(U)p.r(C)p.r(U)p.r(C)p.r(C)p.r(C)p.r(C)p.r(A)p.r(G)p.r(A)p.r(G)p.r(C)p.r(G)p.r(U)p.d(G)p.d(T)}$$$RNA1{StrandType:ss}|RNA2{StrandType:as}$”, 48.3%.
“RNA1{r(C)p.r(U)p.r(G)p.r(C)p.r(G)p.r(C)p.r(U)p.r(G)p.r(C)p.r(C)p.r(U)p.r(G)p.r(G)p.r(U)p.r(C)p.r(A)p.r(U)p.r(C)p.r(A)p.d(T)p.d(T)}|RNA2{r(U)p.r(G)p.r(A)p.r(U)p.r(G)p.r(A)p.r(C)p.r(C)p.r(A)p.r(G)p.r(G)p.r(C)p.r(A)p.r(G)p.r(C)p.r(G)p.r(C)p.r(A)p.r(G)p.d(C)p.d(C)}$$$RNA1{StrandType:ss}|RNA2{StrandType:as}$”: the normalised inhibition (eCFP-eYFP dual reporter) was 66.1%.
For “RNA1{r(G)p.r(U)p.r(G)p.r(G)p.r(U)p.r(U)p.r(G)p.r(U)p.r(G)p.r(G)p.r(G)p.r(C)p.r(G)p.r(U)p.r(C)p.r(C)p.r(U)p.r(C)p.r(U)p.d(T)p.d(T)}|RNA2{r(A)p.r(G)p.r(A)p.r(G)p.r(G)p.r(A)p.r(C)p.r(G)p.r(C)p.r(C)p.r(C)p.r(A)p.r(C)p.r(A)p.r(A)p.r(C)p.r(C)p.r(A)p.r(C)p.d(C)p.d(A)}$$$RNA1{StrandType:ss}|RNA2{StrandType:as}$” the value was 53.5%; for “RNA1{r(C)p.r(U)p.r(A)p.r(G)p.r(C)p.r(U)p.r(C)p.r(C)p.r(C)p.r(A)p.r(C)p.r(G)p.r(U)p.r(C)p.r(U)p.r(A)p.r(U)p.r(G)p.r(U)p.d(T)p.d(T)}|RNA2{r(A)p.r(C)p.r(A)p.r(U)p.r(A)p.r(G)p.r(A)p.r(C)p.r(G)p.r(U)p.r(G)p.r(G)p.r(G)p.r(A)p.r(G)p.r(C)p.r(U)p.r(A)p.r(G)p.d(G)p.d(A)}$$$RNA1{StrandType:ss}|RNA2{StrandType:as}$”, 66.7%.
For “RNA1{r(G)p.r(U)p.r(A)p.r(C)p.r(U)p.r(A)p.r(C)p.r(A)p.r(C)p.r(A)p.r(A)p.r(A)p.r(G)p.r(C)p.r(U)p.r(G)p.r(G)p.r(A)p.r(G)p.d(T)p.d(T)}|RNA2{r(C)p.r(U)p.r(C)p.r(C)p.r(A)p.r(G)p.r(C)p.r(U)p.r(U)p.r(U)p.r(G)p.r(U)p.r(G)p.r(U)p.r(A)p.r(G)p.r(U)p.r(A)p.r(C)p.d(T)p.d(C)}$$$RNA1{StrandType:ss}|RNA2{StrandType:as}$” the value was 58.4%.
In the case of “RNA1{r(C)p.r(A)p.r(C)p.r(C)p.r(C)p.r(A)p.r(G)p.r(U)p.r(U)p.r(C)p.r(U)p.r(U)p.r(C)p.r(C)p.r(C)p.r(C)p.r(A)p.r(C)p.r(C)p.d(T)p.d(T)}|RNA2{r(G)p.r(G)p.r(U)p.r(G)p.r(G)p.r(G)p.r(G)p.r(A)p.r(A)p.r(G)p.r(A)p.r(A)p.r(C)p.r(U)p.r(G)p.r(G)p.r(G)p.r(U)p.r(G)p.d(A)p.d(T)}$$$RNA1{StrandType:ss}|RNA2{StrandType:as}$” it was 56.1%; in that of “RNA1{r(G)p.r(C)p.r(A)p.r(U)p.r(U)p.r(U)p.r(U)p.r(G)p.r(A)p.r(G)p.r(G)p.r(A)p.r(A)p.r(G)p.r(C)p.r(C)p.r(U)p.r(A)p.r(C)p.d(T)p.d(T)}|RNA2{r(G)p.r(U)p.r(A)p.r(G)p.r(G)p.r(C)p.r(U)p.r(U)p.r(C)p.r(C)p.r(U)p.r(C)p.r(A)p.r(A)p.r(A)p.r(A)p.r(U)p.r(G)p.r(C)p.d(T)p.d(T)}$$$RNA1{StrandType:ss}|RNA2{StrandType:as}$”, 87.3%; in that of “RNA1{r(U)p.r(C)p.r(A)p.r(C)p.r(C)p.r(U)p.r(G)p.r(C)p.r(C)p.r(C)p.r(C)p.r(A)p.r(U)p.r(C)p.r(A)p.r(U)p.r(C)p.r(G)p.r(U)p.d(T)p.d(T)}|RNA2{r(A)p.r(C)p.r(G)p.r(A)p.r(U)p.r(G)p.r(A)p.r(U)p.r(G)p.r(G)p.r(G)p.r(G)p.r(C)p.r(A)p.r(G)p.r(G)p.r(U)p.r(G)p.r(A)p.d(T)p.d(A)}$$$RNA1{StrandType:ss}|RNA2{StrandType:as}$”, 73%.
With “RNA1{r(G)p.r(A)p.r(G)p.r(G)p.r(C)p.r(G)p.r(C)p.r(A)p.r(A)p.r(C)p.r(G)p.r(U)p.r(G)p.r(A)p.r(A)p.r(G)p.r(C)p.r(G)p.r(G)p.d(T)p.d(T)}|RNA2{r(C)p.r(C)p.r(G)p.r(C)p.r(U)p.r(U)p.r(C)p.r(A)p.r(C)p.r(G)p.r(U)p.r(U)p.r(G)p.r(C)p.r(G)p.r(C)p.r(C)p.r(U)p.r(C)p.d(T)p.d(C)}$$$RNA1{StrandType:ss}|RNA2{StrandType:as}$”, the normalised inhibition (eCFP-eYFP dual reporter) is 59.5%.
Turning to “RNA1{r(G)p.r(U)p.r(C)p.r(C)p.r(U)p.r(U)p.r(U)p.r(C)p.r(A)p.r(G)p.r(C)p.r(G)p.r(G)p.r(C)p.r(A)p.r(C)p.r(A)p.r(U)p.r(C)p.d(T)p.d(T)}|RNA2{r(G)p.r(A)p.r(U)p.r(G)p.r(U)p.r(G)p.r(C)p.r(C)p.r(G)p.r(C)p.r(U)p.r(G)p.r(A)p.r(A)p.r(A)p.r(G)p.r(G)p.r(A)p.r(C)p.d(A)p.d(G)}$$$RNA1{StrandType:ss}|RNA2{StrandType:as}$”, the normalised inhibition (eCFP-eYFP dual reporter) stood at 65.1%.
Take “RNA1{r(G)p.r(A)p.r(C)p.r(U)p.r(U)p.r(C)p.r(A)p.r(A)p.r(C)p.r(G)p.r(U)p.r(G)p.r(U)p.r(G)p.r(U)p.r(A)p.r(A)p.r(A)p.r(U)p.d(T)p.d(T)}|RNA2{r(A)p.r(U)p.r(U)p.r(U)p.r(A)p.r(C)p.r(A)p.r(C)p.r(A)p.r(C)p.r(G)p.r(U)p.r(U)p.r(G)p.r(A)p.r(A)p.r(G)p.r(U)p.r(C)p.d(C)p.d(T)}$$$RNA1{StrandType:ss}|RNA2{StrandType:as}$”: the normalised inhibition (eCFP-eYFP dual reporter) stood at 102%.
In the case of “RNA1{r(A)p.r(A)p.r(C)p.r(G)p.r(C)p.r(C)p.r(A)p.r(U)p.r(G)p.r(G)p.r(A)p.r(C)p.r(C)p.r(U)p.r(G)p.r(C)p.r(U)p.r(G)p.r(C)p.d(T)p.d(T)}|RNA2{r(G)p.r(C)p.r(A)p.r(G)p.r(C)p.r(A)p.r(G)p.r(G)p.r(U)p.r(C)p.r(C)p.r(A)p.r(U)p.r(G)p.r(G)p.r(C)p.r(G)p.r(U)p.r(U)p.d(G)p.d(C)}$$$RNA1{StrandType:ss}|RNA2{StrandType:as}$” it was 27.2%; in that of “RNA1{r(G)p.r(A)p.r(U)p.r(A)p.r(C)p.r(U)p.r(G)p.r(U)p.r(G)p.r(G)p.r(A)p.r(C)p.r(C)p.r(C)p.r(C)p.r(A)p.r(G)p.r(A)p.r(A)p.d(T)p.d(T)}|RNA2{r(U)p.r(U)p.r(C)p.r(U)p.r(G)p.r(G)p.r(G)p.r(G)p.r(U)p.r(C)p.r(C)p.r(A)p.r(C)p.r(A)p.r(G)p.r(U)p.r(A)p.r(U)p.r(C)p.d(T)p.d(G)}$$$RNA1{StrandType:ss}|RNA2{StrandType:as}$”, 73.8%.
Take “RNA1{r(U)p.r(C)p.r(C)p.r(U)p.r(G)p.r(G)p.r(G)p.r(A)p.r(G)p.r(C)p.r(U)p.r(C)p.r(A)p.r(G)p.r(G)p.r(G)p.r(G)p.r(A)p.r(U)p.d(T)p.d(T)}|RNA2{r(A)p.r(U)p.r(C)p.r(C)p.r(C)p.r(C)p.r(U)p.r(G)p.r(A)p.r(G)p.r(C)p.r(U)p.r(C)p.r(C)p.r(C)p.r(A)p.r(G)p.r(G)p.r(A)p.d(G)p.d(C)}$$$RNA1{StrandType:ss}|RNA2{StrandType:as}$”: the normalised inhibition (eCFP-eYFP dual reporter) came to 52%.
For “RNA1{r(A)p.r(G)p.r(U)p.r(U)p.r(U)p.r(G)p.r(G)p.r(C)p.r(G)p.r(C)p.r(A)p.r(G)p.r(C)p.r(C)p.r(U)p.r(A)p.r(C)p.r(G)p.r(C)p.d(T)p.d(T)}|RNA2{r(G)p.r(C)p.r(G)p.r(U)p.r(A)p.r(G)p.r(G)p.r(C)p.r(U)p.r(G)p.r(C)p.r(G)p.r(C)p.r(C)p.r(A)p.r(A)p.r(A)p.r(C)p.r(U)p.d(G)p.d(G)}$$$RNA1{StrandType:ss}|RNA2{StrandType:as}$” the value was 60.9%; for “RNA1{r(C)p.r(U)p.r(C)p.r(U)p.r(A)p.r(C)p.r(U)p.r(A)p.r(C)p.r(G)p.r(C)p.r(C)p.r(U)p.r(A)p.r(C)p.r(C)p.r(U)p.r(G)p.r(C)p.d(T)p.d(T)}|RNA2{r(G)p.r(C)p.r(A)p.r(G)p.r(G)p.r(U)p.r(A)p.r(G)p.r(G)p.r(C)p.r(G)p.r(U)p.r(A)p.r(G)p.r(U)p.r(A)p.r(G)p.r(A)p.r(G)p.d(A)p.d(T)}$$$RNA1{StrandType:ss}|RNA2{StrandType:as}$”, 56.4%.
In the case of “RNA1{r(A)p.r(G)p.r(C)p.r(C)p.r(U)p.r(A)p.r(C)p.r(C)p.r(C)p.r(C)p.r(A)p.r(A)p.r(C)p.r(U)p.r(G)p.r(C)p.r(A)p.r(C)p.r(A)p.d(T)p.d(T)}|RNA2{r(U)p.r(G)p.r(U)p.r(G)p.r(C)p.r(A)p.r(G)p.r(U)p.r(U)p.r(G)p.r(G)p.r(G)p.r(G)p.r(U)p.r(A)p.r(G)p.r(G)p.r(C)p.r(U)p.d(T)p.d(C)}$$$RNA1{StrandType:ss}|RNA2{StrandType:as}$” it was 70.7%; in that of “RNA1{r(G)p.r(C)p.r(U)p.r(U)p.r(U)p.r(G)p.r(G)p.r(G)p.r(A)p.r(G)p.r(A)p.r(A)p.r(C)p.r(C)p.r(A)p.r(C)p.r(C)p.r(A)p.r(U)p.d(T)p.d(T)}|RNA2{r(A)p.r(U)p.r(G)p.r(G)p.r(U)p.r(G)p.r(G)p.r(U)p.r(U)p.r(C)p.r(U)p.r(C)p.r(C)p.r(C)p.r(A)p.r(A)p.r(A)p.r(G)p.r(C)p.d(T)p.d(G)}$$$RNA1{StrandType:ss}|RNA2{StrandType:as}$”, 75.8%.
